Results: publication PMC5461540, “MOB1 Mediated Phospho-recognition in the Core Mammalian Hippo Pathway” (Molecular & Cellular Proteomics : MCP, 2017)
Read-outs that look alike come from different tables or passages of the source. Values belong to the molecule of their own block, whether it stands above or below them. Where a SMILES comes first, the peptide text is derived from it.

Biological target: T1, MOB1A (Homo sapiens, UniProt Q9H8S9)
T1 construct: MOB1A (2–216, NP_060691); 6xHis (N, cleaved yes); GST (N, cleaved yes); made in house; host or cells: E. coli BL21 (DE3) CodonPlus RIL
T1 sequence (Q9H8S9 2-216): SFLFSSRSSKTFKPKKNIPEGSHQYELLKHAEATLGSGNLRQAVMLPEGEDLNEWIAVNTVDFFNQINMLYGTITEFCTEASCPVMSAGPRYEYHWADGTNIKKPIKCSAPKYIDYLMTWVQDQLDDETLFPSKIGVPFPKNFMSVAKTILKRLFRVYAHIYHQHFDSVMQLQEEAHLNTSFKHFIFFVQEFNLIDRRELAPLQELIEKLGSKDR
Experiment: Fluorescence polarization peptide binding assay, MOB1A wild-type
Conditions: FP
Source text: Human MST1 kinase domain (amino acids 2–326, corresponding to NCBI RefSeq protein NP_006273), MST2 kinase domain (2–322, NP_006272), MOB1B (2–216, NP_001231695), MOB1A (2–216, NP_060691) wild-type and indicated MOB1A mutant proteins, MOB2 (2–237, NP_001165694), MOB3A (2–217, NP_570719), MOB3B (2–216, NP_079037), MOB3C (2–216, NP_660322), MOB4 (2–225, NP_056202), MOB4^RRR→AAA (2–225), and yeast Mob1 (79–314, NP_012160) were expressed in E. coli BL21 (DE3) CodonPlus RIL cells as N-terminal dual 6xhistidine (HIS) and glutathione S-transferase (GST), Tobacco Etch Virus (TEV) cleavable, fusion proteins using a modified pETM-30 vector. MOB wild-type and mutants were purified in batch on glutathione-Sepharose resin (GE Healthcare, Uppsala, Sweden) and eluted by cleavage from the affinity tags with HIS tagged TEV protease. TEV protease was removed from the eluted protein by subtractive immobilized-metal affinity chromatography. Cleaved protein was then concentrated and buffer exchanged by size exclusion chromatography (SEC) using a Superdex 75 120 ml column (GE Healthcare). For GST pull-downs and Far-Western analysis, the TEV cleavage step was omitted.
MST1 phosphopeptides encompassing pT353 and pT367 (15-mers) used for crystallization and FITC labeled nonphosphorylated and phosphorylated MST1 T353 peptides, T367 peptides, T329-T340 peptides, T380-T387 peptides and optimized Nud1-like peptides for fluorescence polarization binding experiments were purchased from Biomatik (Cambridge, ON). Peptide sequences used for crystallization studies are: T353, […](p)TMIEH and T367, […](p)TMVINA. All peptides used for biophysical studies are listed in supplemental Table S1.
Twelve-point fluorescence polarization binding measurements were performed in triplicate in 384-well plate format using an Analyst HT (Artisan-Scientific, Sunnyvale, CA) reader. Each 20 μl measurement condition contained 20 nM FITC labeled MST1 peptide or Nud1-like peptide and the indicated concentration of MOB proteins in 25 mM HEPES pH 7.5, 150 mM NaCl, 2 mM DTT, and 1 mg/ml bovine serum albumin (BSA). Kd values were obtained by fitting the results to a one site-specific binding model using GraphPad Prism.

[1] = 20 nM FITC labeled peptide, recombinant wild-type MOB1A, pH 7.5
[2] = Fig. 3D summary of MST1 phosphopeptide affinities for MOB1A, read-out: Kd

Structure (SMILES): CSCC[C@H](NC(=O)[C@H](CCC(=O)O)NC(=O)[C@H](CC(=O)O)NC(=O)CNC(=O)[C@@H](NC(=O)[C@H](C)NC(=O)[C@H](CCCNC(=N)N)NC(=O)[C@@H](NC(=O)[C@H](CCSC)NC(=O)[C@@H](NC(=O)CN)[C@@H](C)OP(=O)(O)O)C(C)C)C(C)C)C(=O)NCC(=O)N[C@H](C(=O)N[C@H](C(=O)N[C@@H](CCCNC(=N)N)C(=O)O)C(C)C)[C@@H](C)OP(=O)(O)O [MST1 pT329/pT340 peptide] (HELM PEPTIDE1{G.[C[C@@H](OP(=O)(O)O)[C@H](N[*:1])C(=O)[*:2]].M.V.R.A.V.G.D.E.M.G.[C[C@@H](OP(=O)(O)O)[C@H](N[*:1])C(=O)[*:2]].V.R}$$$$V2.0)
Kd (Supplemental Fig. 4A, 4B, MOB1A, differentially phosphorylated MST1 15-mer peptides, mean ± SEM (n=3), read-out: kd): 49 ± 6 µM

Structure (SMILES): CSCC[C@H](NC(=O)[C@H](CCC(=O)O)NC(=O)[C@H](CC(=O)O)NC(=O)CNC(=O)[C@@H](NC(=O)[C@H](C)NC(=O)[C@H](CCCNC(=N)N)NC(=O)[C@@H](NC(=O)[C@H](CCSC)NC(=O)[C@@H](NC(=O)CN)[C@@H](C)O)C(C)C)C(C)C)C(=O)NCC(=O)N[C@H](C(=O)N[C@H](C(=O)N[C@@H](CCCNC(=N)N)C(=O)O)C(C)C)[C@@H](C)OP(=O)(O)O [MST1 T329/pT340 peptide] (HELM PEPTIDE1{G.T.M.V.R.A.V.G.D.E.M.G.[C[C@@H](OP(=O)(O)O)[C@H](N[*:1])C(=O)[*:2]].V.R}$$$$V2.0)
Kd [2]: 66.1 µM

Structure (SMILES): CSCC[C@H](NC(=O)[C@H](CCC(=O)O)NC(=O)[C@H](CC(=O)O)NC(=O)CNC(=O)[C@@H](NC(=O)[C@H](C)NC(=O)[C@H](CCCNC(=N)N)NC(=O)[C@@H](NC(=O)[C@H](CCSC)NC(=O)[C@@H](NC(=O)CN)[C@@H](C)OP(=O)(O)O)C(C)C)C(C)C)C(=O)NCC(=O)N[C@H](C(=O)N[C@H](C(=O)N[C@@H](CCCNC(=N)N)C(=O)O)C(C)C)[C@@H](C)O [MST1 pT329/T340 peptide] (HELM PEPTIDE1{G.[C[C@@H](OP(=O)(O)O)[C@H](N[*:1])C(=O)[*:2]].M.V.R.A.V.G.D.E.M.G.T.V.R}$$$$V2.0)
Kd [2]: 46.5 µM

Continued, values first:

Kd [1]: no detectable binding
Structure (SMILES): CC[C@H](C)[C@H](NC(=O)[C@H](CCSC)NC(=O)[C@@H](NC(=O)[C@H](CC(N)=O)NC(=O)[C@H](C)NC(=O)CNC(=O)[C@H](CC(=O)O)NC(=O)[C@@H](NC(=O)[C@H](CCSC)NC(=O)[C@@H](NC(=O)[C@H](CO)NC(=O)[C@H](C)NC(=O)[C@@H](N)C(C)C)[C@@H](C)O)[C@@H](C)O)[C@@H](C)O)C(=O)N[C@@H](CCC(=O)O)C(=O)N[C@@H](Cc1c[nH]cn1)C(=O)O [T353] (H-VASTMTDGANTMIEH-OH)

Kd [1]: no detectable binding
Structure (SMILES): CC[C@H](C)[C@H](NC(=O)[C@@H](NC(=O)[C@H](CCSC)NC(=O)[C@@H](NC(=O)CNC(=O)[C@H](CC(C)C)NC(=O)[C@H](CCC(N)=O)NC(=O)[C@H](CO)NC(=O)[C@@H]1CCCN1C(=O)[C@H](CC(C)C)NC(=O)[C@@H](NC(=O)[C@H](CC(=O)O)NC(=O)[C@@H](N)CC(=O)O)[C@@H](C)O)[C@@H](C)O)C(C)C)C(=O)N[C@@H](CC(N)=O)C(=O)N[C@@H](C)C(=O)O [T367] (H-DDTLPSQLGTMVINA-OH)
